{"source": "paper PMC12442639", "about": "“A Two‐Protein Chemoreceptor Complex Regulates Oxygen Thresholds in Bacterial Magneto‐Aerotaxis” (Advanced Science, 2025)", "biological_target": "T1, CetB2 (His6-CetB2) (Magnetospirillum gryphiswaldense, UniProt A0ACM8ULG3)", "T1 construct": "N-terminal His6 tag (pET28a), expressed in E. coli Rosetta(DE3) pLysSRARE, Ni-agarose purified; predicted FAD-site residues His54, Asn55, Arg58, Phe67, Trp71, Asn86, Val100, Arg117", "T1 sequence (A0ACM8ULG3 entry or part of it)": "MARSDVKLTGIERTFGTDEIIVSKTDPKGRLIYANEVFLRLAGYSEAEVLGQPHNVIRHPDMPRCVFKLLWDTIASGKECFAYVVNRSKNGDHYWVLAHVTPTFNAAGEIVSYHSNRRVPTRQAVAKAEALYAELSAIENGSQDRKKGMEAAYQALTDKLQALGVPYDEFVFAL", "assay": "LC-MS of purified protein; UV/vis spectroscopy; cyclic voltammetry", "assay_type": "binding", "settings": "non-covalently bound, co-purified FAD; UV/vis in 50 mM Na-phosphate pH 8, 300 mM NaCl, 5% glycerol", "data": [{"smiles": "Cc1cc2nc3c(=O)[nH]c(=O)nc-3n(C[C@H](O)[C@H](O)[C@H](O)COP(=O)(O)OP(=O)(O)OC[C@H]3O[C@@H](n4cnc5c(N)ncnc54)[C@H](O)[C@@H]3O)c2cc1C", "note": "[FAD, flavin adenine dinucleotide]", "values": [{"measurement": "LC-MS of purified protein; UV/vis spectroscopy; cyclic voltammetry", "result": "indicates that FAD was non‐covalently bound to the protein and released during chromatographic separation"}]}]}
